Assay results as given in patent US4321265A, “7α-Methoxycephalosporins” (Toyama Chemical Co., Ltd., priority 1977, dated 1982).
Values after ≈ are worked out from the molar mass of the structure shown. Read-outs that look alike come from different tables or passages of the source.

Legend:
S. marcescens W-35 = assay: Infection-protective activity in mice; type: in vivo, ICR-strain mice (male); settings: subcutaneous, one hour after intraperitoneal inoculation; challenge dose 2.5 × 10^5 cells/mouse; ICR mice
Source text: Four-week old ICR-strain mice (male) in groups, each group consisting of five mice, were inoculated intraperitoneally with a prescribed quantity of a pathogenic bacterium suspended in 5% mucin. After one hour from the inoculation, the mice were subcutaneously administered with the test preparation to determine the infection-protective activity. The figures in Table 4 represent the protective activity in terms of ED50.

[1] = biological target: T1, β-lactamase (cephalosporinase, C. freundii GN-346) (Citrobacter freundii, UniProt P05193); assay: Inhibitory dose to β-lactamase, iodometric method of Perret, Cefazolin as substrate; type: biochemical; settings: read-out: Inhibitory dose to β-lactamase (ID50) (converted)
T1 construct: producing bacteria; endogenous in cells; host or cells: C. freundii GN-346

[2] = system: Penicillinase (E. coli TK-3); assay: Stability to β-lactamase, iodometry (Perret); type: biochemical; settings: E. coli TK-3 penicillinase; PCG = 100; 30° C., pH 7.0
Procedure: (§1) The stability to β-lactamase was examined by iodometry at 30° C. by the method of Perret (Perret, C. J., "Iodometric assay of penicillinase", Nature, 174, 1012-1013 (1954)), except that a 0.1 M phosphate buffer solution (pH 7.0) was used in place of the 0.2 M phosphate buffer solution (pH 6.5). The stability of each compound was shown in Table 2 in terms of relative degree of hydrolysis, assuming the stability of Cephaloridin (CER) to cephalosporinase as 100 and the stability of Penicillin G (PCG) to penicillinase as 100.

[3] = system: Penicillinase (P. aeruginosa GN-3379); assay: Stability to β-lactamase, iodometry (Perret); type: biochemical; settings: P. aeruginosa GN-3379 penicillinase; PCG = 100; 30° C., pH 7.0
Procedure: as §1

[4] = biological target: T2, Cephalosporinase (E. coli GN-5482) (Escherichia coli, UniProt P00811); assay: Stability to β-lactamase, iodometry (Perret); type: biochemical; settings: E. coli GN-5482 cephalosporinase; CER = 100; 30° C., pH 7.0
T2 construct: native preparation, details not in excerpts
Procedure: as §1

[5] = biological target: T3, Cephalosporinase (S. marcescens W-8) (Serratia marcescens, UniProt P18539); assay: Stability to β-lactamase, iodometry (Perret); type: biochemical; settings: S. marcescens W-8 cephalosporinase; CER = 100; 30° C., pH 7.0
T3 construct: native preparation, details not in excerpts
Procedure: as §1

[6] = system: Penicillinase (K. pneumoniae Y-4); assay: Stability to β-lactamase, iodometry (Perret); type: biochemical; settings: K. pneumoniae Y-4 penicillinase; PCG = 100; 30° C., pH 7.0
Procedure: as §1

Toxicity (LD50) = settings: mouse, in vivo; ICR-strain mice; intravenous
Source text: The 7α-methoxycephalosporins of this invention are low-toxic.

[7] = biological target: T4, β-lactamase (cephalosporinase, E. coli GN-5482) (Escherichia coli, UniProt P00811); assay: Inhibitory dose to β-lactamase, iodometric method of Perret, Cefazolin as substrate; type: biochemical
T4 construct: producing bacteria; endogenous in cells; host or cells: E. coli GN-5482

Ser. marcescens W-35 = assay: Minimum inhibitory concentration (MIC), Heart Infusion agar; type: cell-based; settings: Serratia marcescens, W35, 20 h, S. marcescens W-35, read-out: MIC
Procedure: Antibacterial activities of the representative compounds (Ib) of the 7α-methoxycephalosporins according to this invention are shown in Table 1. [drawing 20]
The figures given in Table 1 represent the minimum inhibitory concentration (MIC in mcg/ml) of each compound, which was determined according to the method described in "Chemotherapy (Society of Chemotherapy, Japan), Vol. 16, 98-99 (1968)": A culture obtained by cultivating the test bacterium in a Heart Infusion broth (Eiken Kagaku Co.) was inoculated into a Heart Infusion agar medium (Eiken Kagaku Co.). After 20 hours of the incubation at 37° C., the growth of the bacterium was inspected to determine the minimum inhibitory concentration (MIC in mcg/ml). […]
(1) Minimum inhibitory concentration (MIC in mcg/ml).

[8] = biological target: T5, β-lactamase (cephalosporinase, S. marcescens W-8) (Serratia marcescens, UniProt P18539); assay: Inhibitory dose to β-lactamase, iodometric method of Perret, Cefazolin as substrate; type: biochemical; settings: read-out: Inhibitory dose to β-lactamase (ID50) (converted)
T5 construct: producing bacteria; endogenous in cells; host or cells: S. marcescens W-8
T5 sequence (P18539 22-376): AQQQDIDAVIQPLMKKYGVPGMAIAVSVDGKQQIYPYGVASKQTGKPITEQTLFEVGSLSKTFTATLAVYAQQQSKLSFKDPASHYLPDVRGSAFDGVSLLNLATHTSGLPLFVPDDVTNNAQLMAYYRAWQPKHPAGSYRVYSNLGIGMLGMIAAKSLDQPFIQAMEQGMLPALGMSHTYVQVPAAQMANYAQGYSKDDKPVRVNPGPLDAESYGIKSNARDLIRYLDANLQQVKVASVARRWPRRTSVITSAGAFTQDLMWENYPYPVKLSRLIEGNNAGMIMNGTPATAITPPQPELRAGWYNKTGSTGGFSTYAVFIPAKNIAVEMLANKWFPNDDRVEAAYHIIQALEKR

T2 sequence (P00811 20-377): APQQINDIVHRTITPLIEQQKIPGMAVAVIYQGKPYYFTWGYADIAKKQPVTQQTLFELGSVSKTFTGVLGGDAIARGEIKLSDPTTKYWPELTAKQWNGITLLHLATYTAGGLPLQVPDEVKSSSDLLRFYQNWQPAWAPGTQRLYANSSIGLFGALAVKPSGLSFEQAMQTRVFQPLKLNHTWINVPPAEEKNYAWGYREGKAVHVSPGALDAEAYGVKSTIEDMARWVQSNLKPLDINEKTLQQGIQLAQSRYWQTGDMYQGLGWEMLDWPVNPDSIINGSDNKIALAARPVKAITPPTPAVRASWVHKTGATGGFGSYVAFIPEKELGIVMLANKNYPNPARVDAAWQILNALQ
T4 sequence (P00811 20-377): as above
T3 sequence (P18539 22-376): as the sequence (P18539 22-376) above
T1 sequence (P05193 21-381): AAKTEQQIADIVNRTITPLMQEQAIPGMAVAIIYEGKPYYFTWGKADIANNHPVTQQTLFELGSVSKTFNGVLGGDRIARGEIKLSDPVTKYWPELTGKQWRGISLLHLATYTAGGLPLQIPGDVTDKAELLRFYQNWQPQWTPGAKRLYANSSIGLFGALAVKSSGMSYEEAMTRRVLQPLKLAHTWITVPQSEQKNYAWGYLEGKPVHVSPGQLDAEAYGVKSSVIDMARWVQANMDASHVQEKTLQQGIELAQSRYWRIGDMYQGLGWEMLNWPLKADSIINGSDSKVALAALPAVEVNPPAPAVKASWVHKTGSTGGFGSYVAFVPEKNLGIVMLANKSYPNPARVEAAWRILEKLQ

Structure (SMILES): CCN1CCN(C(=O)NC(C(=O)N[C@]2(OC)C(=O)N3C(C(=O)O)=C(CSc4nnnn4C)CS[C@@H]32)c2cccs2)C(=O)C1=O (stereo partly drawn) [Example T-1414]
- ED50 (infection-protective activity) (S. marcescens W-35): 0.84 mg/mouse
- IC50 [1]: 2550 nM
- Stability to β-lactamase, relative degree of hydrolysis [2]: < 0.003
- Stability to β-lactamase, relative degree of hydrolysis [3]: 0.03
- Stability to β-lactamase, relative degree of hydrolysis [4]: < 0.1
- Stability to β-lactamase, relative degree of hydrolysis [5]: 0.02
- Stability to β-lactamase, relative degree of hydrolysis [6]: < 0.09
- LD50 (Toxicity (LD50)): ≥ 5000 mg/kg
- IC50 [7]: 1230 nM
- MIC (Ser. marcescens W-35; inoculated bacteria quantity 10^6 cells/ml (Table 4)): 6.25 µg/mL (≈ 9.39 µM)
- MIC (Ser. marcescens W-35; inoculated bacteria quantity 10^8 cells/ml (Table 4)): 12.5 µg/mL (≈ 18.8 µM)
- IC50 [8]: 811 nM
